From patent US12662497B2, “Benzazepine compounds, preparation method therefor and pharmaceutical use thereof” (Shanghai Senhui Medicine Co., Ltd., priority 2021, dated 2026)
Blank lines part the entries; values can stand above or below the compound they belong to.

Legend:
[1] = Pharmacokinetic study in rats (Test Example 4), intragastric administration; type: in vivo; conditions: Sprague-Dawley, rat, plasma, SD rats, mean value
Description: 1.1.1. Experimental Animals: SD Rats, Male and Female, Weighing about 180-220 g. Housing Environment: SPF. The Animals were Transferred from the Animal Repository (999M-017) of the Laboratory Animal Management Department, Shanghai Institute of Planned Parenthood Research. 1.1.2. Administration Regimen:
(§1) Tolvaptan and compound 5 were intragastrically administrated. Blood was collected before the administration and 10 min, 0.5 h, 1 h, 2 h, 4 h, 6 h, 8 h and 24 h after the administration. EDTA-K2 was used as the anticoagulant, and the esterase inhibitor DDVP was added. Plasma samples were separated and cryopreserved at −70° C., and the compound 5 and tolvaptan levels were determined by LC-MS/MS.

[2] = Pharmacokinetic study in dogs (Test Example 1), intragastric administration; type: in vivo; conditions: beagles; for AUC(0-inf) / AUC(0-t) / Cmax / Tmax / half-life: beagle, dog, plasma, mean value
Description: (§2) 1.1.1. Experimental Animals: Beagles, Non-Naïve, Sourced from the Animal Repository of Medicilon: 999M-004.
A proper amount of tolvaptan and compound 5 was accurately weighed out and well mixed with a proper volume of 1% hydroxypropyl methylcellulose by vortexing or ultrasonication to give a 0.5 mg/mL solution of tolvaptan and a 2.15 mg/mL solution of compound 5 for intragastric administration.
as §1, with “30 min,” for “0.5 h,”, “DDVP (manufacturer: Sigma)” for “DDVP”

[3] = target: T1, Arginine vasopressin receptor 2 (AVPR2) (Homo sapiens, UniProt P30518); experiment: Arginine vasopressin receptor 2 (AVPR2) receptor cAMP assay in Flpin-CHO-AVPR2 cells; type: cell-based, humans; conditions: arginine vasopressin stimulation
T1 construct: host or cells: Flpin-CHO (CHO cells)
T1 sequence (P30518 whole entry): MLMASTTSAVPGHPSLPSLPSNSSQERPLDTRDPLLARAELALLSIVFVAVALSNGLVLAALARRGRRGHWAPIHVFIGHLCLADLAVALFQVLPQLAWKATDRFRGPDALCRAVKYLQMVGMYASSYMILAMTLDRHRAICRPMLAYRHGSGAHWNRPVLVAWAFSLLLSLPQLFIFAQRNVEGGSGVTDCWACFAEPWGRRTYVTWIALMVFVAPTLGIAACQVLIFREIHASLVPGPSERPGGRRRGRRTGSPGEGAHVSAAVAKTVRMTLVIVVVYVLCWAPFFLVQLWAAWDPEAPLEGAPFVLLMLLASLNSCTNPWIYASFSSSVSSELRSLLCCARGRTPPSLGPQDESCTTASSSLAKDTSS
Description: The test compound was 5-fold diluted with assay buffer (Hank's balanced salt solution+20 mM HEPES+0.1% BSA+500 μM IBMX (manufacturer: Sigma)). The highest initial concentration of the test compound in the assay was 10 μM.
Flpin-CHO-AVPR2 (the cell strain was constructed by Pharmaron Beijing Co., Ltd.; AVPR2 was derived from humans)
• 1) Cells were digested, resuspended in assay buffer and inoculated into a 384-well cell culture plate at a density of 8000 cells per well and a volume of 15 μL per well. • 2) The compound was diluted with assay buffer. • 3) 2.5 μL of the compound was added to each well, and the plate was incubated at 37° C. for 10 min. • 4) Arginine vasopressin (manufacturer: MedChemExpress) was diluted with assay buffer to a concentration of 16 μM. • 5) 2.5 μL of the 16 μM solution of arginine vasopressin was added, and the plate was incubated at 37° C. for 30 min. • 6) Eu-cAMP tracer and Ulight-anti-cAMP were thawed and diluted with lysis buffer (Eu-cAMP tracer, Ulight-anti-cAMP and lysis buffer were all taken from the cAMP assay kit (manufacturer: Perkin Elmer)). • 7) 10 μL of Eu-cAMP tracer was added to the experimental wells, and then 10 μL of Ulight-anti-cAMP was added to the experimental wells. • 8) The reaction plate was centrifuged at room temperature at 200 g for 30 s and left at 25° C. for 1 h, and data collection was performed using a microplate reader.

[4] = Pharmacokinetic study in beagles (Test Example 5), intravenous drip and intragastric administration; type: in vivo; conditions: for AUC(0-t) / Cmax / Tmax / half-life: beagle, dog, plasma
Description: as §2
(§3) A proper amount of compound 1b disodium salt and compound 5 was accurately weighed out and well mixed with a proper volume of normal saline by vortexing or ultrasonication to give a 0.5 mg/mL clear solution of compound 1b disodium salt, a 0.25 mg/mL clear solution of compound 5 and a 1.35 mg/mL clear solution of compound 5 for intravenous drip administration.
(§4) A proper amount of tolvaptan and compound 5 was accurately weighed out and well mixed with a proper volume of 1% hydroxypropyl methylcellulose by vortexing or ultrasonication to give a 5 mg/mL solution of tolvaptan and a 1.35 mg/mL solution of compound 5 for intragastric administration.
(§5) The compounds of the intravenous administration group were administered via an intravenous drip over 1 h. The compounds of the intragastric administration group were intragastrically administered. Time points of blood collection were: before the administration and 30 min, 1 h, 1.5 h, 2 h, 4 h, 6 h, 12 h and 24 h after the administration. About 1 mL of blood was collected via the jugular vein or in other suitable ways. EDTA-K2 was used as the anticoagulant, and the esterase inhibitor DDVP was added. Plasma samples were separated and cryopreserved at −70° C., and the levels of related compounds in vivo were determined by LC-MS/MS. About 0.5 mL of blood was collected via the jugular vein or in other suitable ways, placed into separator gel blood collection tubes (without an anticoagulant) and centrifuged at room temperature at 3500 rpm for 10 min to separate the serum, and the concentration of Na^+ in the serum was determined by using the ion-selective electrode method.

[5] = system: beagles; experiment: Blood sodium level (serum Na+, ion-selective electrode) in beagles (Test Example 5); type: in vivo; conditions: compound 5 administered intragastrically 2.7 mg/kg, FIG. 1
Description: as §3, §4
as §5, with “Time points of blood collection were: before the administration and 30 min, 1 h, 1.5 h, 2 h, 4 h, 6 h, 12 h and 24 h after the administration. About 1 mL of blood was collected via the jugular vein or in other suitable ways. EDTA-K2 was used as the anticoagulant, and the esterase inhibitor DDVP was added.” left out

[6] = Pharmacokinetic study in rats (Test Example 3), intravenous injection; type: in vivo; conditions: SD rats
Description: 1.1.1. Experimental Animals: SD Rats, Male and Female, Weighing about 220 g. Housing Environment: SPF. The Animals were Transferred from the Animal Repository (999M-017) of the Laboratory Animal Management Department, Shanghai Institute of Planned Parenthood Research. 1.1.2. Administration Regimen:
A proper amount of the compound was accurately weighed out and well mixed with a proper volume of 10% DMSO+35% PEG400+55% normal saline by vortexing or ultrasonication to give a clear solution for intravenous injection.
Blood was collected at various time points after intravenous injection (before the administration and 0.0833, 0.25, 0.5, 1, 2, 4, 8 and 24 h after the administration). EDTA-K2 was used as the anticoagulant, and the esterase inhibitor DDVP was added. Plasma samples were separated and cryopreserved at −70° C., and the compound and tolvaptan levels were determined by LC-MS/MS.

[7] = female, Compound 5 PO 12.9 mg/kg, molecule detected Compound 5
[8] = male, Compound 5 PO 12.9 mg/kg, molecule detected Compound 5
[9] = Compound 5 administered PO 4.3 mg/kg, molecule detected Compound 5
[10] = intragastric, tolvaptan converted in vivo from compound 5 vs tolvaptan administered
[11] = iv, Compound 5 0.5 mg/kg i.v. drip over 1 h, molecule detected Compound 5, mean value
[12] = iv, Compound 5 2.7 mg/kg i.v. drip over 1 h, molecule detected Compound 5, mean value
[13] = po, Compound 5 2.7 mg/kg p.o., molecule detected Compound 5, mean value
[14] = both sexes, Sprague-Dawley, rat, plasma, iv, Compound M i.v. 3.91 mg/kg, molecule detected Compound M, mean value
[15] = female, Tolvaptan PO 9 mg/kg, molecule detected Tolvaptan
[16] = male, Tolvaptan PO 9 mg/kg, molecule detected Tolvaptan
[17] = Tolvaptan administered PO 1 mg/kg, molecule detected Tolvaptan
[18] = po, Tolvaptan 10 mg/kg p.o., molecule detected Tolvaptan, mean value

AUC(0-t) [1, 7]: 58.4 ng·h/mL
Cmax [1, 7]: 50.1 ng/mL
Tmax [1, 7]: 0.167 h
half-life [1, 7]: 1.67 h
AUC(0-t) [1, 8]: 46.1 ng·h/mL
Cmax [1, 8]: 44.4 ng/mL
Tmax [1, 8]: 0.167 h
half-life [1, 8]: 1.55 h
AUC(0-inf) [2, 9]: 162 ng·h/mL
AUC(0-t) [2, 9]: 156 ng·h/mL
Cmax [2, 9]: 88.7 ng/mL
Tmax [2, 9]: 0.389 h
half-life [2, 9]: 1.43 h
exposure compared with tolvaptan [2, 10]: higher exposure
half-life compared with tolvaptan [2, 10]: longer half-life
IC50 [3]: 8 nM
AUC(0-t) [4, 11]: 1200 ng·h/mL
Cmax [4, 11]: 889 ng/mL
Tmax [4, 11]: 1 h
half-life [4, 11]: 0.704 h
AUC(0-t) [4, 12]: 7850 ng·h/mL
Cmax [4, 12]: 5700 ng/mL
Tmax [4, 12]: 1 h
half-life [4, 12]: 0.647 h
AUC(0-t) [4, 13]: 122 ng·h/mL
Cmax [4, 13]: 61.5 ng/mL
Tmax [4, 13]: 0.5 h
half-life [4, 13]: 1 h
AUC0-t of tolvaptan converted from compound 5 compared with tolvaptan administered intragastrically ([4]; intragastric, compound 5 at a relatively low molar dose (2.7 mg/kg vs tolvaptan 10 mg/kg)): higher AUC0-t
Compound: Cc1ccccc1C(=O)Nc1ccc(C(=O)N2CCCC(OCOP(=O)(O)OCC[N+](C)(C)C)c3cc(Cl)ccc32)c(C)c1 (stereo not drawn) [Compound 5, ((7-Chloro-1-(2-methyl-4-(2-methylbenzamido)benzoyl)-2,3,4,5-tetrahydro-1H-benzo[b]azepin-5-yl)oxy)methyl (2-(trimethylammonio)ethyl) phosphate]
elevating the blood sodium level [5]: has the effect of elevating the blood sodium level

AUC(0-inf) [6, 14]: 824 ng·h/mL
AUC(0-t) [6, 14]: 786 ng·h/mL
Cmax [6, 14]: 719 ng/mL
Tmax [6, 14]: 8.34 min
clearance [6, 14]: 90.8 mL/min/kg
half-life [6, 14]: 1.17 h
Vd ([6]; both sexes, Sprague-Dawley, rat, plasma, iv, Compound M i.v. 3.91 mg/kg, molecule detected Compound M, mean value, read-out: Vss): 6.47 L/kg
Compound: Cc1ccccc1C(=O)Nc1ccc(C(=O)N2CCCC(OC(=O)[C@@H](N)C(C)C)c3cc(Cl)ccc32)c(C)c1 (stereo partly drawn) [Compound M]

plasma level of administered molecule ([6]; Hydrochloride of Compound 16 i.v. 4.41 mg/kg, molecule detected Hydrochloride of Compound 16): Undetectable
Compound: Cc1ccccc1C(=O)Nc1ccc(C(=O)N2CCCC(OC(=O)OCOC(=O)C(N)C(C)C)c3cc(Cl)ccc32)c(C)c1.Cl (stereo not drawn) [Hydrochloride of Compound 16]

AUC(0-t) [1, 15]: 1820 ng·h/mL
Cmax [1, 15]: 412 ng/mL
Tmax [1, 15]: 2 h
half-life [1, 15]: 2.64 h
AUC(0-t) [1, 16]: 55.5 ng·h/mL
Cmax [1, 16]: 20.3 ng/mL
Tmax [1, 16]: 1.67 h
AUC(0-inf) [2, 17]: 26.3 ng·h/mL
AUC(0-t) [2, 17]: 21.6 ng·h/mL
Cmax [2, 17]: 7.08 ng/mL
Tmax [2, 17]: 1.5 h
half-life [2, 17]: 1.94 h
AUC(0-t) [4, 18]: 10.2 ng·h/mL
Cmax [4, 18]: 3.83 ng/mL
Tmax [4, 18]: 1.17 h
half-life [4, 18]: 2.61 h
Compound: Cc1ccccc1C(=O)Nc1ccc(C(=O)N2CCCC(O)c3cc(Cl)ccc32)c(C)c1 (stereo not drawn) [Tolvaptan, reference compound]
